Results published in patent US10874743B2, “IRAK degraders and uses thereof” (Kymera Therapeutics, Inc., priority 2017, dated 2020).

Assays:
IRAK4 = biological target: T1, IRAK4 (Homo sapiens, UniProt Q9NWZ3); assay: OCI-LY-10 degradation assay (western blot, % IRAK4 degraded after 4 hours); assay type: cell-based; set-up: endogenous in cells; host or cells: OCI-LY10; settings: OCI-LY10 cells
T1 sequence (Q9NWZ3 1-460): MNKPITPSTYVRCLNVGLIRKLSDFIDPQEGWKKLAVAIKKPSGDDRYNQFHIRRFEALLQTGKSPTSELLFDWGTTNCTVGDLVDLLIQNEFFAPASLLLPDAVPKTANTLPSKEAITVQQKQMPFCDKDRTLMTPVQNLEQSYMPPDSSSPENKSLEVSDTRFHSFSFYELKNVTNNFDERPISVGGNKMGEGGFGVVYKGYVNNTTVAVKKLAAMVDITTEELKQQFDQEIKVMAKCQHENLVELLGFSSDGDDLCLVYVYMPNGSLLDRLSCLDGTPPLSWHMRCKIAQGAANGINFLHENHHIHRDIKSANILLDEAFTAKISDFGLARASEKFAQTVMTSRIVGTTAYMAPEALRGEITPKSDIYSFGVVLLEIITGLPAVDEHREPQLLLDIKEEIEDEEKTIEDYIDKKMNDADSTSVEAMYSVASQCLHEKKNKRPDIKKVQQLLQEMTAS
Outline: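 OCI-LY10 cells (RPMI-1640, 20% FBS, 55 μM 2-ME) treated with compound at 0.003-10 μM final for 4 h at 37° C, then lysed in RIPA buffer. IRAK4 level read by fluorescent western blot (20-25 μg protein) and binned as % degraded: A >50%, B >20-50%, C <20%.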

[1] = biological target: CRBN-DDB1 / GST-IRAK4 ternary complex (Homo sapiens, UniProt Q96SW2+Q9NWZ3); assay: AlphaLISA assay to determine ternary complex formation; assay type: binding
CRBN-DDB1 / GST-IRAK4 ternary complex, sequence (Q96SW2 whole entry, one chain of several): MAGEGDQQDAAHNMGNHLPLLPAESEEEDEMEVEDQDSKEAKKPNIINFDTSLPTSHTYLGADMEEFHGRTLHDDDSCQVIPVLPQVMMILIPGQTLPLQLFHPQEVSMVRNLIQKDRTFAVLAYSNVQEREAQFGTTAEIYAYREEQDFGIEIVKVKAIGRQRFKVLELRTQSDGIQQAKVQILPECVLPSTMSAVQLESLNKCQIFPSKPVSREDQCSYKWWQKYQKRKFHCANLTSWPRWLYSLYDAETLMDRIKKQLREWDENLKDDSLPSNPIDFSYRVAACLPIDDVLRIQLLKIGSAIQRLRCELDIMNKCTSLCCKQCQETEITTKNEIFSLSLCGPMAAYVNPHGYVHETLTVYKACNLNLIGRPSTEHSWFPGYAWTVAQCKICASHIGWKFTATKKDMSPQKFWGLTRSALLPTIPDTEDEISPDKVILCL
CRBN-DDB1 / GST-IRAK4 ternary complex, sequence (Q16531 whole entry partner, one chain of several): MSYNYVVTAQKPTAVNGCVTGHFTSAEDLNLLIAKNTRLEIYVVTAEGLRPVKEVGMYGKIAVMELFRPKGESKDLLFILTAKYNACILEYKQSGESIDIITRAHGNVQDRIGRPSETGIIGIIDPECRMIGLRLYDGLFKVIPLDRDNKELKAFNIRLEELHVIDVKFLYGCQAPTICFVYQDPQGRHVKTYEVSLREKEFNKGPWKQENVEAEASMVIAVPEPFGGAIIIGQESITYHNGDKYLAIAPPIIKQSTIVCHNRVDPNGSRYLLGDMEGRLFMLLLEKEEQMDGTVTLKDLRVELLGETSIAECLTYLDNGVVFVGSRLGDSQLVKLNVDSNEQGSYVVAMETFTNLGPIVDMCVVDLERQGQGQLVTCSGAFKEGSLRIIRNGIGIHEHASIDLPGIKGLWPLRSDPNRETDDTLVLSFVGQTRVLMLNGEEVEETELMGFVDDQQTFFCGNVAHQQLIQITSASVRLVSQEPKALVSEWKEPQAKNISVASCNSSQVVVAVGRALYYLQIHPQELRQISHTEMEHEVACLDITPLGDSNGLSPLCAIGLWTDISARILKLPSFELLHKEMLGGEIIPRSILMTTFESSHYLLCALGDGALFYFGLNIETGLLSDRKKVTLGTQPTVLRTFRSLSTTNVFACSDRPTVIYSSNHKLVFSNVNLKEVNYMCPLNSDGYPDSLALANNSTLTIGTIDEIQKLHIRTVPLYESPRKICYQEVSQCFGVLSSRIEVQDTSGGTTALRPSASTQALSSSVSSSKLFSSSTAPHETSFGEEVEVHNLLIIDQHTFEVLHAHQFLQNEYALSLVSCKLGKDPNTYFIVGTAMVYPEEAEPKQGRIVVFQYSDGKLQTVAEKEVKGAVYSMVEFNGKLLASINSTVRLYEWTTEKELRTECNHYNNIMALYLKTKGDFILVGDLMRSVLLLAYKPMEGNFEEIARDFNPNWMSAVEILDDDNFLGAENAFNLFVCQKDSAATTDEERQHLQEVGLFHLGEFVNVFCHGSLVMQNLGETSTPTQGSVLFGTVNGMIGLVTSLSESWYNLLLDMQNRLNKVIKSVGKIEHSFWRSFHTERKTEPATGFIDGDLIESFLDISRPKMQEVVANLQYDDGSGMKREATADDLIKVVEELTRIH
Protocol: The assay mixture contains 100 nM CRBN-DDB1, 100 nM GST-IRAK4, 20 μg/mL Nickle Chelate Donor Bead (Perkin Elmer Catalog # AS101D) and 20 μg/mL GSH Acceptor Bead (Perkin Elmer Catalog # AL109C) in a buffer containing 50 mM HEPES, pH 7.5, 100 mM NaCl, 0.1% BSA, 2 mM TCEP, 0.05% Tween-20. […] AlphaLISA signals (Excitation 680 nm and emission 615 nm) were recorded on a Perkin Elmer EnVision 2104 Multilabel reader. The raw data was converted to the relative amount of ternary complex formation by normalization to the signal generated by His-tagged GST protein only. The final data points were plotted and the curves were fit using non-linear regression using GraphPad Prism software.

Compound | OCI-LY10 % IRAK4 Degradation (0.01 uM) (IRAK4; 4 hours, 0.01 uM compound) | OCI-LY10 % IRAK4 Degradation (0.1 uM) (IRAK4; 4 hours, 0.1 uM compound) | OCI-LY10 % IRAK4 Degradation (1 uM) (IRAK4; 4 hours, 1 uM compound) | OCI-LY10 % IRAK4 Degradation (IRAK4; IRAK4 degraded after 4 hours, western blot) | Average % Ternary Complex (N = 2) ([1]; compound concentration 1.00E−07 M) [%] | Average % Ternary Complex (N = 2) ([1]; compound concentration 1.25E−08 M) [%] | Average % Ternary Complex (N = 2) ([1]; compound concentration 1.28E−05 M) [%] | Average % Ternary Complex (N = 2) ([1]; compound concentration 1.60E−06 M) [%] | Average % Ternary Complex (N = 2) ([1]; compound concentration 2.00E−07 M) [%] | Average % Ternary Complex (N = 2) ([1]; compound concentration 2.50E−08 M) [%] | Average % Ternary Complex (N = 2) ([1]; compound concentration 3.20E−06 M) [%] | Average % Ternary Complex (N = 2) ([1]; compound concentration 4.00E−07 M) [%] | Average % Ternary Complex (N = 2) ([1]; compound concentration 5.00E−08 M) [%] | Average % Ternary Complex (N = 2) ([1]; compound concentration 6.25E−09 M) [%] | Average % Ternary Complex (N = 2) ([1]; compound concentration 6.40E−06 M) [%] | Average % Ternary Complex (N = 2) ([1]; compound concentration 8.00E−07 M) [%]
O=C1CCC(N2C(=O)c3cccc(NCCOCCOCCNCc4ccc(-n5cc(NC(=O)c6coc(-c7ccnc(NCC8CC8)c7)n6)c(C(F)F)n5)cc4)c3C2=O)C(=O)N1 (stereo not shown) [I-210, 2-[2-(Cyclopropylmethylamino)-4-pyridyl]-N-[3-(difluoromethyl)-1-[4-[[2-[2-[2-[[2-(2,6-dioxo-3-piperidyl)-1,3-dioxoisoindolin-4-yl]amino]ethoxy]ethoxy]ethylamino]methyl]phenyl]pyrazol-4-yl]oxazole-4-carboxamide] | C (<20% degradation) | B (>20-50% degradation) | A (>50% degradation) | A (>50% degradation) |  |  |  |  |  |  |  |  |  |  |  | 
NC(=O)c1nn(-c2ccc(C(=O)NCCOCCOCCNc3cccc4c3C(=O)N(C3CCC(=O)NC3=O)C4=O)cc2)cc1NC(=O)c1coc(-c2ccnc(NCC(F)(F)F)c2)n1 (stereo not shown) [I-127, N-[3-carbamoyl-1-[4-[2-[2-[2-[[2-(2,6-dioxo-3-piperidyl)-1,3-dioxo-isoindolin-4-yl]amino]ethoxy]ethoxy]ethylcarbamoyl]phenyl]pyrazol-4-yl]-2-[2-(2,2,2-trifluoroethylamino)-4-pyridyl]oxazole-4-carboxamide] |  |  |  |  | 31.29 | 5.89 | 1.58 | 12.53 | 28.96 | 12.66 | 6.74 | 25.83 | 23.14 | 2.71 | 3.36 | 17.79
